Measurements as given in patent publication US20060269482A1 (priority 2005, published 2006).

Experiments:
[1] = system: Rb phosphorylation in cells; details: literature report; cited from earlier work
[2] = system: Rb phosphorylation in tumor xenografts; details: literature report; cited from earlier work
[3] = system: Rb phosphorylation in human PBMCs; assay: Rb phosphorylation in human PBMCs stimulated ex vivo with PMA; format: cell-based
Procedure: Approximately 10 mls of blood was collected from five healthy human volunteers into sodium heparin treated Vacutainer blood collection tubes by Employee Health Services. PBMCs were separated using the Lymphocyte Separation Medium (LSM) and protocol supplied by ICN Biomedicals Inc. (Costa Mesa, Calif.). Briefly whole blood was diluted 1:1 with cold HBSS (Hanks Balanced Salt Solution), layered onto the LSM and centrifuged. The band of mononuclear cells above the LSM was collected, transferred to a new tube and washed once with cold HBSS. Cells were resuspended in RPMI 1640, 10% HI-FBS, 2 mM L-glutamine and 0.01 mg/ml Gentamicin Reagent Solution (GIBCO/Invitrogen). […]
(§1) PBMCs were collected by transferring the cells, including attached cells and those in suspension, into 50 ml tubes. […] Samples were sonicated on ice for 30 seconds, clarified by centrifugation at 16,000×g for 10 minutes at 4° C. and protein concentrations determined using Non-Interfering Protein Assay Kit (Geno Technology Incorporated, Maplewood, Mo.). […] For Western blotting, total Rb was detected using antibody from Pharmingen (BD Bioscience, San Diego, Calif.) at a dilution of 1:2000. Lysates were analysed by Western blotting for Rb phosphorylation using polyclonal antibodies against phosphorylated serine 795, serine 780, threonine 821 and serine 807/811 in human Rb (FIG. 8). […]

[4] = system: Rb phosphorylation in rat PBMCs; assay: Rb phosphorylation in rat PBMCs following ex vivo PMA activation; format: cell-based; details: 300 ng/ml for 24 hours, Western blot
Procedure: PBMCs are not cycling cells and need to be stimulated with the mitogen PMA to enter the cell cycle.
Blood from three rats at the specified times was pooled (˜10 mls total) and PBMCs were separated using the Lymphocyte Separation Medium (LSM) and protocol supplied by ICN Biomedicals Inc. (Costa Mesa, Calif.). Briefly whole blood was diluted 1:1 with cold HBSS (Hanks Balanced Salt Solution), layered onto the LSM and centrifuged. The layer of mononuclear cells above the LSM was collected, transferred to a new tube and washed once with cold HBSS. Cells were resuspended in RPMI 1640, 10% HI-FBS, 2 mM L-glutamine and 0.01 mg/ml Gentamicin Reagent Solution (GIBCO/Invitrogen). Cells were seeded into T-75 cm^2 flasks at ≦1×10^7 cells in 20 mls medium and stimulated with 300 ng/ml of phorbol 12-myristate 13-acetate (PMA) for 24 hours. […]
as §1, with “1:2000.” for “1:2000. Lysates were analysed by Western blotting for Rb phosphorylation using polyclonal antibodies against phosphorylated serine 795, serine 780, threonine 821 and serine 807/811 in human Rb (FIG. 8).”

phosphorylated Rb = details: phase 1, in combination with docetaxel, cited from earlier work

CC(C)(C)c1cnc(CSc2cnc(NC(=O)C3CCNCC3)s2)o1 [BMS-387032]
Rb phosphorylation in cells [1]: Inhibition of Rb phosphorylation

CC[C@H](CO)Nc1nc(NCc2ccccc2)c2ncn(C(C)C)c2n1 [CYC 202, r-Roscovitine]
Rb phosphorylation in cells [1]: Inhibition of Rb phosphorylation

CC(=O)c1c(C)c2cnc(Nc3ccc(N4CCNCC4)cn3)nc2n(C2CCCC2)c1=O [PD 0332991]
Rb phosphorylation in tumor xenografts [2]: Inhibition of Rb phosphorylation
Rb phosphorylation in cells [1]: Inhibition of Rb phosphorylation

CCCCCCCCCCCCCC(=O)O[C@@H]1[C@@H](C)[C@@]2(O)[C@@H](C=C(CO)C[C@]3(O)C(=O)C(C)=C[C@@H]23)[C@@H]2C(C)(C)[C@]12OC(C)=O [PMA, phorbol 12-myristate 13-acetate]
Phosphorylation at serine 795 and serine 780 in human PBMCs ([3]; 300 ng/ml, 24, 48 and 72 hours post stimulation): not significant until 48-72 hours
Phosphorylation at serine 807/811 and threonine 821 sites in human PBMCs ([3]; 300 ng/ml, 24 hours post mitogen addition, five donors): Significant phosphorylation
Phosphorylated Rb in rat PBMCs after mitogen stimulation [4]: sufficient for detection of phosphorylated Rb

CN1CC[C@H](c2c(O)cc(O)c3c(=O)cc(-c4ccccc4Cl)oc23)[C@H](O)C1 [flavopiridol]
pRb in paired tumors (phosphorylated Rb; 6 paired tumors): no significant changes
pRb in buccal mucosa biopsies post treatment (phosphorylated Rb; patients with metastatic tumors): somewhat decreased
Rb phosphorylation in cells [1]: Inhibition of Rb phosphorylation
